From article PMC7391726, “Fatty acid mimetic PBI-4547 restores metabolic homeostasis via GPR84 in mice with non-alcoholic fatty liver disease” (Scientific Reports, 2020)

Biological target: T1, PPARγ (Homo sapiens, UniProt P37231)
T1 construct: PPARγ (S176–Y477); expressed in transfected cells; host or cells: HEK293
T1 sequence (P37231 176-477 isoform P37231-2): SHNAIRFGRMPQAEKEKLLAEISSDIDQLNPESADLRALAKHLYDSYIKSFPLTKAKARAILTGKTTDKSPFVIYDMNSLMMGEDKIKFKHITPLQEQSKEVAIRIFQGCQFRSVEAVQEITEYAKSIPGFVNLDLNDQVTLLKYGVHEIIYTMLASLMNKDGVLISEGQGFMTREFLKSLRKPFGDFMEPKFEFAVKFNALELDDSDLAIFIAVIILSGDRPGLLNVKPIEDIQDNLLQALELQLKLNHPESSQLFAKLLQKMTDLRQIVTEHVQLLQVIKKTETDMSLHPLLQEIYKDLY
Test: Cell-based GAL4 transactivation assay in HEK293 cells, PPARγ LBD
Source text: To determine the transcriptional activity of PBI-4547, a cell-based GAL4 transactivation assay in HEK293 cells transfected with either PPARα, PPARδ, or PPARγ LBD was used. […] However, PBI-4547 only partially activated PPARγ transcriptional activity, with a relative maximal efficacy of 38% of the control agonist rosiglitazone.
Generation of the Gαi2, Gαq, and GPR40/β-arrestin-2 BRET biosensors have been described previously. A plasmid encoding the human GPR120-L (long isoform) cDNA was obtained from R&D Systems. GPR120-S (short isoform) was generated by replacing the BglII-BsgI fragment from GPR120-L by a gBlock gene fragment (Integrated DNA Technologies, Coralville, IA) lacking the DNA sequence corresponding to the extra 16 amino acids found in the third intracellular loop of the long form. The GPR120-GFP10 construct was generated by inserting PCR-amplified GPR120-S (without its stop codon) in place of GPR40 in the GPR40-GFP10 plasmid. […]
HEK293 cells were co-transfected with pGL4.35[luc2P/9XGAL4UAS/Hygro] and GAL4-PPAR-Rluc plasmids, and after 24 h of incubation were treated with compounds for 24 h. Luciferase activity was determined with the Dual Glo luciferase assay (Promega). Firefly luminescence was normalized to the constitutively expressed Renilla luminescence, and results expressed as fold induction of vehicle control.

`CCCCCc1cc(CCCCC)cc(CC(=O)[O-])c1.[Na+]` [PBI-4547, 2-[3,5-dipentylphenyl]acetate sodium salt] showed an EC50 (HEK293, 24 h, read-out: EC50, PPARγ transcriptional activity) of 3.6 µM and an Emax (HEK293, of the control agonist rosiglitazone, read-out: relative maximal efficacy, PPARγ transcriptional activity) of 38%.
